Activity calls are given as the source filed them. How the calls were made is not given here.
Tested on: GENE-TOX genotoxicity assays, various organisms and cells
Assay: GENE-TOX mutagenicity studies
Details: for call: Assay Type: In vivo carcinogenicity studies
From the text: GENE-TOX provides genetic toxicology (mutagenicity) test data from expert peer review of open scientific literature for more than 3,000 chemicals from the United States Environmental Protection Agency (EPA). GENE-TOX was established to select assay systems for evaluation, review data in the scientific literature, and recommend proper testing protocols and evaluation procedures for these systems.
GENE-TOX covers the years 1991 - 1998. It is no longer updated.
This is an archive assay for GENE-TOX mutagenicity studies.

[1] = Species/Cell Type: Bacillus subtilis (H17 vs M45), Assay Type: Rec-assay, spot test, DNA effects (bacterial DNA repair), Assay Code: REWT, Evaluation Type: Evaluation A (Pre-1980)
[2] = Species/Cell Type: Nonhuman, Assay Code: CCG-, Evaluation Type: Evaluation A (Pre-1980)
[3] = Species/Cell Type: Saccharomyces cerevisiae, Assay Type: Mitotic recombination or gene conversion, Assay Code: YEH-, Evaluation Type: Evaluation A (Pre-1980)
[4] = Species/Cell Type: Salmonella typhimurium (one or more of the five standard strains: TA98, TA100, TA1535, TA1537, and TA1538), Assay Type: Histidine reverse gene mutation, Ames assay, Assay Code: SAL-, Evaluation Type: Evaluation A (Pre-1980)

## CCN(CC)N=O
Species/Cell Type: Chinese hamster lung (V79) cells, Assay Type: Forward gene mutation at the HPRT or ouabain locus, Assay Code: V79+, Evaluation Type: Evaluation A (Pre-1980)
  mutagenic call: active; positive
Species/Cell Type: Chinese hamster ovary (CHO) cells, Assay Type: Forward gene mutation at the HPRT locus, Assay Code: CHO+*, Activation: With metabolic activation, Evaluation Type: Evaluation B (Post-1980)
  mutagenic call: active; positive
Species/Cell Type: Drosophila melanogaster, Assay Type: Sex-linked recessive lethal gene mutation, Assay Code: SRL+, Evaluation Type: Evaluation A (Pre-1980)
  mutagenic call: active; positive
Species/Cell Type: Drosophila melanogaster, Sex: Male, Assay Type: Heritable translocation test, chromosome aberrations, Assay Code: DHTT, Evaluation Type: Evaluation A (Pre-1980)
  mutagenic call: no conclusion
Species/Cell Type: Escherichia coli polA (W3110 vs P3478), Assay Type: Rec-assay, DNA effects (bacterial DNA repair), Assay Code: RE2+, Evaluation Type: Evaluation A (Pre-1980)
  mutagenic call: active; positive
Species/Cell Type: Escherichia coli polA (W3119 vs P3478), Assay Type: Rec-assay, DNA effects (bacterial DNA repair), Assay Code: RE1-, Evaluation Type: Evaluation A (Pre-1980)
  mutagenic call: inactive; negative
Species/Cell Type: Fischer rat embryo (RLV/1706) cells, Assay Type: Cell transformation, viral enhanced, Assay Code: CTR+, Evaluation Type: Evaluation A (Pre-1980)
  mutagenic call: active; positive
Species/Cell Type: Human diploid fibroblasts, Assay Type: Unscheduled DNA synthesis (UDS) in vitro, DNA effects, Assay Code: UDHT, Evaluation Type: Evaluation A (Pre-1980)
  mutagenic call: no conclusion
Species/Cell Type: Human lymphocytes, Assay Type: Sister-chromatid exchange (SCE) in vitro, Assay Code: SCL+D*, Activation: With metabolic activation, Dose Response: With dose response, Evaluation Type: Evaluation B (Post-1980)
  mutagenic call: active; positive
Species/Cell Type: Human lymphocytes, Assay Type: Sister-chromatid exchange (SCE) in vitro, Assay Code: SCL-, Evaluation Type: Evaluation A (Pre-1980)
  mutagenic call: inactive; negative
Species/Cell Type: Human, Assay Type: Sister-chromatid exchange (SCE) in vitro, Assay Code: SC1+D*, Activation: With metabolic activation, Dose Response: With dose response, Evaluation Type: Evaluation B (Post-1980)
  mutagenic call: active; positive
Species/Cell Type: Human, Assay Type: Sister-chromatid exchange (SCE) in vitro, Assay Code: SC1-, Evaluation Type: Evaluation A (Pre-1980)
  mutagenic call: inactive; negative
Species/Cell Type: Mammalian polychromatic erythrocytes, Assay Type: Micronucleus test, chromosome aberrations, Assay Code: MNTT, Evaluation Type: Evaluation A (Pre-1980)
  mutagenic call: no conclusion
Species/Cell Type: Mouse germ cells, Sex: Male, Assay Type: Unscheduled DNA synthesis (UDS) in vivo, DNA effects, Assay Code: UDT-, Evaluation Type: Evaluation A (Pre-1980)
  mutagenic call: inactive; negative
Species/Cell Type: Mouse lymphoma (L5178Y) cells, Assay Type: Forward gene mutation at the thymidine kinase (TK) locus, chromosome aberrations, Assay Code: L51+*, Activation: With metabolic activation, Evaluation Type: Evaluation A (Pre-1980)
  mutagenic call: active; positive
Species/Cell Type: Mouse, Sex: Female, Assay Type: Spot test, gene mutation, Assay Code: MST-, Evaluation Type: Evaluation A (Pre-1980)
  mutagenic call: inactive; negative
Species/Cell Type: Mouse, Sex: Male, Assay Type: Specific locus test, gene mutation, Assay Code: SLT-, Evaluation Type: Evaluation A (Pre-1980)
  mutagenic call: inactive; negative
Species/Cell Type: Neurospora crassa, Assay Type: Forward gene mutation, Assay Code: NEF+, Evaluation Type: Evaluation A (Pre-1980)
  mutagenic call: active; positive
Species/Cell Type: Neurospora crassa, Assay Type: Reverse gene mutation, Assay Code: NER+, Evaluation Type: Evaluation A (Pre-1980)
  mutagenic call: active; positive
Species/Cell Type: Nonhuman, Assay Type: Chromosome aberrations in vitro, Assay Code: CY&+*, Activation: With metabolic activation, Evaluation Type: Evaluation A (Pre-1980)
  mutagenic call: active; positive
Species/Cell Type: Nonhuman, Assay Code: CCG+, Evaluation Type: Evaluation A (Pre-1980)
  call: active; positive
Species/Cell Type: Nonhuman, Assay Type: Sister-chromatid exchange (SCE) in vitro, Assay Code: SC2+D, Dose Response: With dose response, Evaluation Type: Evaluation A (Pre-1980)
  mutagenic call: active; positive
Species/Cell Type: Nonhuman, Assay Type: Sister-chromatid exchange (SCE) in vivo, Assay Code: SC3+, Evaluation Type: Evaluation B (Post-1980)
  mutagenic call: active; positive
Species/Cell Type: Nonhuman, Assay Type: Sister-chromatid exchange (SCE) in vivo, Assay Code: SC3+D, Dose Response: With dose response, Evaluation Type: Evaluation A (Pre-1980)
  mutagenic call: active; positive
Species/Cell Type: Rat primary hepatocytes, Assay Type: Unscheduled DNA synthesis (UDS) in vitro, DNA effects, Assay Code: UDP+, Evaluation Type: Evaluation A (Pre-1980)
  mutagenic call: active; positive
Species/Cell Type: Rodents, Sex: Male, Assay Type: Dominant lethal test, Assay Code: DLT-, Evaluation Type: Evaluation A (Pre-1980)
  mutagenic call: inactive; negative
Species/Cell Type: Saccharomyces cerevisiae, Assay Type: Forward gene mutation, Assay Code: YEF+*, Activation: With metabolic activation, Evaluation Type: Evaluation A (Pre-1980)
  mutagenic call: active; positive
Species/Cell Type: Saccharomyces cerevisiae, Assay Type: Mitotic recombination or gene conversion, Assay Code: YEH+, Evaluation Type: Evaluation A (Pre-1980)
  mutagenic call: active; positive
Species/Cell Type: Salmonella typhimurium (one or more of the five standard strains: TA98, TA100, TA1535, TA1537, and TA1538), Assay Type: Histidine reverse gene mutation, Ames assay, Assay Code: SAL+*, Activation: With metabolic activation, Evaluation Type: Evaluation A (Pre-1980)
  mutagenic call: active; positive
Species/Cell Type: Salmonella typhimurium, Escherichia coli, Serratia marcesens, Chinese hamster lung (V79) cells, Assay Type: Forward and reverse gene mutation, host-mediated assay, Assay Code: HM1+, Evaluation Type: Evaluation A (Pre-1980)
  mutagenic call: active; positive
Species/Cell Type: Syrian hamster embryo (SHE) cells, Assay Type: Cell transformation, clonal assay, Assay Code: CTC+*, Activation: With metabolic activation, Evaluation Type: Evaluation A (Pre-1980)
  mutagenic call: active; positive

## CCOC(=O)CC(SP(=S)(OC)OC)C(=O)OCC (stereo not given)
[1]
  mutagenic call: no conclusion
Species/Cell Type: Drosophila melanogaster, Assay Type: Sex-linked recessive lethal gene mutation, Assay Code: SRL-, Evaluation Type: Evaluation A (Pre-1980)
  mutagenic call: inactive; negative
Species/Cell Type: Escherichia coli WP2 UVRA, Assay Type: Tryptophan reverse gene mutation, Assay Code: WPU-*, Activation: With metabolic activation, Evaluation Type: Evaluation A (Pre-1980)
  mutagenic call: inactive; negative
Species/Cell Type: Escherichia coli polA (W3119 vs P3478), Assay Type: Rec-assay, DNA effects (bacterial DNA repair), Assay Code: RE1T, Evaluation Type: Evaluation A (Pre-1980)
  mutagenic call: no conclusion
Species/Cell Type: Hordeum vulgare (barley), Assay Type: Chromosome aberrations, Assay Code: HOC+D, Dose Response: With dose response, Evaluation Type: Evaluation A (Pre-1980)
  mutagenic call: active; positive
Species/Cell Type: Human diploid fibroblasts, Assay Type: Unscheduled DNA synthesis (UDS) in vitro, DNA effects, Assay Code: UDH-, Evaluation Type: Evaluation A (Pre-1980)
  mutagenic call: inactive; negative
Species/Cell Type: Human, Assay Type: Sister-chromatid exchange (SCE) in vitro, Assay Code: SC1+D, Dose Response: With dose response, Evaluation Type: Evaluation A (Pre-1980)
  mutagenic call: active; positive
Species/Cell Type: Human, Assay Type: Sister-chromatid exchange (SCE) in vitro, Assay Code: SC1+D, Dose Response: With dose response, Evaluation Type: Evaluation B (Post-1980)
  mutagenic call: active; positive
Species/Cell Type: Mammalian polychromatic erythrocytes, Assay Type: Micronucleus test, chromosome aberrations, Assay Code: MNT+, Evaluation Type: Evaluation B (Post-1980)
  mutagenic call: active; positive
[2]
  call: inactive; negative
Species/Cell Type: Nonhuman, Assay Type: Sister-chromatid exchange (SCE) in vitro, Assay Code: SC2+D, Dose Response: With dose response, Evaluation Type: Evaluation B (Post-1980)
  mutagenic call: active; positive
[3]
  mutagenic call: inactive; negative
[4]
  mutagenic call: inactive; negative

## O=[N+]([O-])c1ccc(-c2ccccc2)cc1
Species/Cell Type: Escherichia coli polA (W3119 vs P3478), Assay Type: Rec-assay, DNA effects (bacterial DNA repair), Assay Code: RE1+, Evaluation Type: Evaluation A (Pre-1980)
  mutagenic call: active; positive
Species/Cell Type: Neurospora crassa, Assay Type: Aneuploidy, chromosome aberrations, Assay Code: NEN-, Evaluation Type: Evaluation A (Pre-1980)
  mutagenic call: inactive; negative
Species/Cell Type: Nonhuman, Assay Code: CCG+L, Evaluation Type: Evaluation A (Pre-1980)
  call: active; positive
Species/Cell Type: Nonhuman, Assay Type: Sister-chromatid exchange (SCE) in vitro, Assay Code: SC2+, Evaluation Type: Evaluation B (Post-1980)
  mutagenic call: active; positive
Species/Cell Type: Nonhuman, Assay Type: Sister-chromatid exchange (SCE) in vivo, Assay Code: SC3+D, Dose Response: With dose response, Evaluation Type: Evaluation B (Post-1980)
  mutagenic call: active; positive
[3]
  mutagenic call: inactive; negative
Species/Cell Type: Salmonella typhimurium (one or more of the five standard strains: TA98, TA100, TA1535, TA1537, and TA1538), Assay Type: Histidine reverse gene mutation, Ames assay, Assay Code: SAL+, Evaluation Type: Evaluation A (Pre-1980)
  mutagenic call: active; positive
Species/Cell Type: Salmonella typhimurium, Assay Type: Forward and reverse gene mutation, host-mediated assay, Assay Code: HMA+, Evaluation Type: Evaluation A (Pre-1980)
  mutagenic call: active; positive
Species/Cell Type: Syrian hamster embryo (SA7/SHE) cells, Assay Type: Cell transformation, viral enhanced, Assay Code: CT7+, Evaluation Type: Evaluation A (Pre-1980)
  mutagenic call: active; positive
Species/Cell Type: Syrian hamster embryo (SHE) cells, Assay Type: Cell transformation, clonal assay, Assay Code: CTC+, Evaluation Type: Evaluation A (Pre-1980)
  mutagenic call: active; positive

## O=S(=O)(O)c1ccc(N=Nc2c(O)ccc3cc(S(=O)(=O)O)ccc23)cc1
[1]
  mutagenic call: no conclusion
Species/Cell Type: Bacillus subtilis (H17 vs M45T), Assay Type: Rec-assay, spot test, DNA effects (bacterial DNA repair), Assay Code: REXT, Evaluation Type: Evaluation A (Pre-1980)
  mutagenic call: no conclusion
[2]
  call: inactive; negative
Species/Cell Type: Nonhuman, Assay Type: Sister-chromatid exchange (SCE) in vitro, Assay Code: SC2T, Evaluation Type: Evaluation A (Pre-1980)
  mutagenic call: no conclusion
Species/Cell Type: Saccharomyces cerevisiae, Assay Type: Mitotic recombination or gene conversion, Assay Code: YEC-, Evaluation Type: Evaluation A (Pre-1980)
  mutagenic call: inactive; negative
[4]
  mutagenic call: inactive; negative

Reference: PubChem BioAssay AID1259408 (Genetic Toxicology Data Bank (GENE-TOX), 2018)
